Laboratory results: patent US12403132B2, “Methods of treating bone marrow failure syndromes and compositions for use in the same” (The Board of Trustees of the Leland Stanford Junior …, priority 2020, dated 2025)
Values belong to the compound of their own block, whether it stands above or below them.

Assays:
[1] = target: T1, NLK (Homo sapiens, UniProt Q9UBE8); experiment: Kinase Profiling of SD208; format: biochemical; details: 10 μM; data not shown
T1 sequence (Q9UBE8 1-527): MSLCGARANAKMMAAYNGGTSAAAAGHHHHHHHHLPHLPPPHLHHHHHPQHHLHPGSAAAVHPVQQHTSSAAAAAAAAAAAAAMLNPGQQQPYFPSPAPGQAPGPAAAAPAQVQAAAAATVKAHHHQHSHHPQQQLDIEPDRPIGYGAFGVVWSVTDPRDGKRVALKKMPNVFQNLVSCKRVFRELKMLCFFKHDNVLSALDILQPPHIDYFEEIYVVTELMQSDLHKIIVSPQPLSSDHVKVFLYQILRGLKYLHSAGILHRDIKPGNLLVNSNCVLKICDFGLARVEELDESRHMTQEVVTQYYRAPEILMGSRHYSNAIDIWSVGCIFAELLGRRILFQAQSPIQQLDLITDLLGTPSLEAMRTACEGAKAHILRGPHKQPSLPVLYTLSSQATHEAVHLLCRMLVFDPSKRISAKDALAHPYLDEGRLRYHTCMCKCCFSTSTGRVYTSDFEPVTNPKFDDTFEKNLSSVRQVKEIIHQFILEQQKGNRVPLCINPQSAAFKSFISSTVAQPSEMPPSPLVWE

[2] = test system: RPS19; experiment: RPS19 expression in differentiating HSPCs (qRT-PCR); format: cell-based, human; details: differentiating RPS19-insufficient HSPCs
Excerpt: As the suppression of NLK by miRNAs has been documented, we sought to screen a number of common nutritional supplements that have been documented to modulate miRNAs in their ability to improve erythroid expansion in an in vitro model of DBA. To induce ribosomal insufficiency, CD34+ HSPCs from human cord blood were transduced with a shRNA against RPS19 that reduced RPS19 expression by approximately 50% to recapitulate decreased function due to RPS19 mutations in DBA patients. As described above, metformin improves erythroid expansion by miRNA-mediated suppression of NLK mRNA expression and was therefore included as a positive control. […] Efficacy of shRNA against RPS19 was quantified by qRT-PCR. […] To determine if the ginsenoside Rb1 effect was through the inhibition of NLK, we treated differentiating HSPCs with ginsenoside Rb1 that were transduced with a non-targeting control or siRNA against NLK. Ginsenoside R1 alone or siRNA against NLK alone improved erythroid expansion by 2.7- and 5.1-fold, respectively.

[3] = test system: NLK; experiment: NLK expression and NLK activity in murine progenitors; format: cell-based, mouse; details: control, RPS19- or RPL11-insufficient mice, metformin
Excerpt: (§1) FIG. 11. […] Statistics: two-tailed Student's t test, significant *P<0.05

[4] = test system: zebrafish (Danio rerio) embryos; experiment: Zebrafish rps19 morpholino model, o-dianisidine hemoglobin staining; format: in vivo
Excerpt: as §1

[5] = test system: zebrafish NLK 3′UTR; experiment: Luciferase fused to zebrafish NLK 3′UTR in K562 cells; format: cell-based; details: transient transfection in K562, metformin 72 hrs
[6] = test system: NLK; experiment: Endogenous NLK protein in K562 cells (Western blot); format: cell-based, human; details: K562, miRNA mimetics or metformin, 72 hrs
Method: (§2) FIG. 14. Metformin-mediated upregulation of miR-26a in human progenitors suppresses NLK expression. (Panel A) Human CD34+ (upper) and murine Lin-Kit+ (lower) progenitors were differentiated for 8 days in the presence or absence of metformin and the levels of indicated miRNAs were assessed by qRT-PCR. (Panel B) K562 cells stably expressing the luciferase gene coupled to the NLK 3′UTR were mock transfected, transfected with indicated miRNA mimetics, or treated with metformin, and cultured in the presence or absence of metformin for 72 hrs. After lysis, luciferase activity was determined and endogenous NLK and GAPDH protein expression was analyzed by Western blot. (Panel C) K562 cells were mock transfected, or transfected with either miR-34 or miR-26 sponges, prior to being left untreated or treated with metformin for 72 hrs. Lysed cells were subjected to luciferase assay and western blotting to examine NLK and GAPDH protein expression. […] Statistics: two-tailed Student's t test, significant *P<0.05
NLK kinase activity was performed as published (5). For Western blotting, antibodies against NLK (#AB97642; Abcam; 1:1000 dilution) and GAPDH (#MAB374; Millipore; 1:10000) were used according to manufacturer's instructions.

[7] = test system: miRNA species; experiment: miRNA expression by qRT-PCR in differentiating murine Lin-Kit+ progenitors; format: cell-based, mouse; details: metformin
Method: as §2
MessengerRNA was quantified as described (5). MicroRNA was quantified using TaqMan® Small RNA Assays (Applied Biosystems) as per manufacturer's directions and normalized to snoRNA.

[8] = test system: SATB1 3′UTR; experiment: Luciferase alone or fused to SATB1 3′UTR in K562 cells; format: cell-based, human; details: K562, 0.5-50 mM, 72 hrs
Method: FIG. 12. NLK 3′UTR facilitates metformin-mediated NLK suppression. (Panel A) K562 cells stabling expressing luciferase alone (top portion), luciferase expressed behind a minimal promoter and the NLK proximal promoter (2nd portion), luciferase immediately upstream of the human NLK 3′UTR (3rd portion) or luciferase with the SATB1 3′UTR (bottom portion) were grown in the presence of 0, 0.5, 5.0 or 50.0 mM of metformin for 72 hrs. Cell were pelleted and either processed for luciferase assay (left portion) or western blot analysis of endogenous NLK (upper right portion) or GAPDH (lower right portion). (Panel B) Luciferase immediately upstream of the human (upper), murine (middle) and zebrafish (lower) NLK 3′UTR were transiently transfected into human K562 (left) and cultured with indicated concentrations of metformin for 72 hrs. Lysates were assessed for luciferase activity and endogenous NLK and GAPDH protein expression by Western blotting. […] Statistics: two-tailed Student's t test, significant *P<0.05
In parallel with measuring luciferase activity, the response of endogenous NLK protein expression was monitored by Western blot analysis with a high degree of correlation.

- NLK kinase activity inhibited [1]: 96.8%
SMILES: Fc1ccc(Cl)cc1-c1nc(Nc2ccncc2)c2nccnc2n1 [SD208]

SMILES: CC(C)=CCC[C@](C)(O[C@@H]1O[C@H](CO[C@@H]2O[C@H](CO)[C@@H](O)[C@H](O)[C@H]2O)[C@@H](O)[C@H](O)[C@H]1O)[C@H]1CC[C@]2(C)[C@@H]1[C@H](O)C[C@@H]1[C@@]3(C)CC[C@H](O[C@@H]4O[C@H](CO)[C@@H](O)[C@H](O)[C@H]4O[C@@H]4O[C@H](CO)[C@@H](O)[C@H](O)[C@H]4O)C(C)(C)[C@@H]3CC[C@]12C [ginsenoside Rb1]
- influence on RPS19 expression [2]: did not influence

SMILES: CN(C)C(=N)N=C(N)N [metformin]
- impact on NLK activity [3]: no impact
- impact on NLK expression [3]: no impact
- heart conditions ([4]; 20 mM metformin): persisted
- O'dianisidine (hemoglobin) staining ([4]; 20 mM metformin from 4 to 5 hpf, day 3): dramatically restored
- decrease of luciferase activity, zebrafish 3′UTR [5]: 43.6%
- reduction of endogenous NLK protein expression [6]: 68.6%
- upregulation of miRNA species [7]: none of the miRNA species examined demonstrated significant upregulation
- metformin sensitivity of luciferase alone or fused with SATB1 3′UTR [8]: did not result in metformin sensitivity
